Three molecules from PMC9060491, “Biochemical and structural characterization of an aromatic ring–hydroxylating dioxygenase for terephthalic acid catabolism” (Proceedings of the National Academy of Sciences of the …, 2022) can be followed below.

In series [1] the target is T1, terephthalate dioxygenase (TPADO; TphA2/TphA3) (Comamonas sp., UniProt Q3C1D5).
T1 construct: gene tphA2II; alpha with C-terminal His6, coexpressed with beta from pET-DUET in E. coli; alpha3beta3 heterohexamer, 196 kDa; Rieske [2Fe-2S] and mononuclear Fe(II); with Terephthalate 1,2-dioxygenase, terminal oxygenase component subunit beta
The series can be described thus: HPLC end point, NADH and analog consumption. In kind it is biochemical. As to conditions: uncoupler, not oxygenated; 90 min in air, limiting NADH, with TphA1 reductase.

The target of series [2] is T2, TPADO reductase (TphA1) (Comamonas sp., UniProt Q3C1E0).
T2 construct: gene tphA1I; C-terminal His6, expressed in E. coli; plant-type [2Fe-2S], flavin
Kind of series: HPLC of TPADO/reductase reaction. In kind it is biochemical. The conditions noted are these: electron donor in the coupled system with TPADO and TPA; NADPH not used.

Substrate in series [3]: O=C(O)c1ccc(C(=O)O)cc1
Kind of series: steady-state kinetics, Michaelis-Menten fit. In kind it is biochemical, Comamonas sp. The conditions noted are these: ambient air (O2 not shown saturating), NADH, with TphA1 reductase.

T2 sequence (Q3C1E0 whole entry): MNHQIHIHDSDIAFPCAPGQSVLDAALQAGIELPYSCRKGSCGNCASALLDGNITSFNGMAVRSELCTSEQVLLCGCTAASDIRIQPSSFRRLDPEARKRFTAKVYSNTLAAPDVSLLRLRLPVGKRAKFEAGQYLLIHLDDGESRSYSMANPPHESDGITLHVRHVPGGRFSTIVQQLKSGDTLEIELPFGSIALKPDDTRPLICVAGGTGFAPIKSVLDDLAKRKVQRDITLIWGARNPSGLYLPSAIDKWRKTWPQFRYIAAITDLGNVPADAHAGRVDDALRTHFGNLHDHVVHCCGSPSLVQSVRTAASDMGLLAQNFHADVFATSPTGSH
T1 sequence (Q3C1E2 whole entry, one chain of several, further chain): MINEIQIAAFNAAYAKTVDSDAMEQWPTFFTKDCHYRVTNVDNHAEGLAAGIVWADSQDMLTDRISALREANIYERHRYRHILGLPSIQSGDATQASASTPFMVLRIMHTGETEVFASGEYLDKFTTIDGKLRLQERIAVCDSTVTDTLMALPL

Turning to `O=C(O)c1ccc([N+](=O)[O-])cc1` [4-NBA, 4-nitrobenzoic acid], the “% NADH consumption” value in series [1] worked out at 100%.

Turning to `NC(=O)C1=CN([C@@H]2O[C@H](COP(=O)(O)OP(=O)(O)OC[C@H]3O[C@@H](n4cnc5c(N)ncnc54)[C@H](O)[C@@H]3O)[C@@H](O)[C@H]2O)C=CC1` [NADH], the “HPLC of TPADO/reductase reaction” value in series [2] is listed as “specifically in the presence of nicotinamide adenine dinucleotide hydride (NADH) rather than its phosphorylated analog”.

B1: terephthalate dioxygenase (TPADO; TphA2/TphA3) (Comamonas sp.) (protein)
chain: MQESIIQWHGATNTRVPFGIYTDTANADQEQQRIYRGEVWNYLCLESEIPGAGDFRTTFAGETPIVVVRDADQEIYAFENRCAHRGALIALEKSGRTDSFQCVYHAWSYNRQGDLTGVAFEKGVKGQGGMPASFCKEEHGPRKLRVAVFCGLVFGSFSEDVPSIEDYLGPEICERIERVLHKPVEVIGRFTQKLPNNWKLYFENVKDSYHASLLHMFFTTFELNRLSQKGGVIVDESGGHHVSYSMIDRGAKDDSYKDQAIRSDNERYRLKDPSLLEGFEEFEDGVTLQILSVFPGFVLQQIQNSIAVRQLLPKSISSSELNWTYLGYADDSAEQRKVRLKQANLIGPAGFISMEDGAVGGFVQRGIAGAANLDAVIEMGGDHEGSSEGRATETSVRGFWKAYRKHMGQEMQA
notes: alpha with C-terminal His6, coexpressed with beta from pET-DUET in E. coli; alpha3beta3 heterohexamer, 196 kDa; Rieske [2Fe-2S] and mononuclear Fe(II); with Terephthalate 1,2-dioxygenase, terminal oxygenase component subunit beta
As for B1, in series [3], the Km was determined as 9.6 ± 1 µM and the catalytic constant (kcat) was 0.2 ± 0.005 s⁻¹.

By Km is commonly meant the substrate concentration at which the rate is half of its maximum. A word on the kcat: it is the maximal rate divided by the concentration of active sites.
